US11083725B2 (priority 2014, dated 2021)

System: NHBE cells
Test: Biolog metabolic array: substrate use by NHBE cells with or without CA09 infection
Type: cell-based, human
Conditions: for Substrate use, 590 nm absorbance normalized to zero hour, 0 hr: Biolog PMM2, 0 hr; for Substrate use, 590 nm absorbance normalized to zero hour, 1 hr: Biolog PMM2, 1 hr; for Substrate use, 590 nm absorbance normalized to zero hour, 5 hr: Biolog PMM2, 5 hr; for Substrate use, 590 nm absorbance normalized to zero hour, 7 hr: Biolog PMM2, 7 hr
[1] = Control (uninfected) NHBE cells
[2] = Virus (CA09, MOI 1) infected NHBE cells
[3] = Virus (CA09-infected, MOI 1) NHBE cells
[4] = Virus (CA09-infected NHBE cells, MOI 1)
[5] = Virus: CA09-infected NHBE cells, MOI 1, Biolog PMM2

Compound: CC(=O)N[C@H]1[C@H]([C@H](O)[C@H](O)CO)OC(O)(C(=O)O)C[C@@H]1O (stereo partly shown) [n-acetyl-neuraminic acid]
- 590 nm absorbance normalized to zero hour (substrate use), 0 hr [1]: 1.00
- 590 nm absorbance normalized to zero hour (substrate use), 1 hr [1]: 0.19
- 590 nm absorbance normalized to zero hour (substrate use), 2 hr [1]: 0.21
- 590 nm absorbance normalized to zero hour (substrate use), 3 hr [1]: 0.19
- 590 nm absorbance normalized to zero hour (substrate use), 4 hr [1]: 0.20
- 590 nm absorbance normalized to zero hour (substrate use), 6 hr [1]: 0.36
- 590 nm absorbance normalized to zero hour (substrate use), 8 hr [1]: 0.27
- 590 nm absorbance normalized to zero hour (substrate use), 9 hr [1]: 0.29
- 590 nm absorbance normalized to zero hour (substrate use), 10 hr [1]: 0.32
- 590 nm absorbance normalized to zero hour (substrate use), 11 hr [1]: 0.25
- Substrate use, 590 nm absorbance normalized to zero hour, 0 hr [1]: 1.00
- Substrate use, 590 nm absorbance normalized to zero hour, 1 hr [1]: 0.19
- Substrate use, 590 nm absorbance normalized to zero hour, 5 hr [1]: 0.23
- Substrate use, 590 nm absorbance normalized to zero hour, 7 hr [1]: 0.26
- Substrate use, 590 nm absorbance normalized to zero hour, 0 hr [2]: 1.00
- Substrate use, 590 nm absorbance normalized to zero hour, 1 hr [2]: 4.77
- Substrate use, 590 nm absorbance normalized to zero hour, 5 hr [2]: 1.43
- Substrate use, 590 nm absorbance normalized to zero hour, 7 hr [2]: 1.58
- 590 nm absorbance normalized to zero hour (substrate use), 0 hr [3]: 1.00
- 590 nm absorbance normalized to zero hour (substrate use), 1 hr [3]: 4.77
- 590 nm absorbance normalized to zero hour (substrate use), 2 hr [3]: 3.35
- 590 nm absorbance normalized to zero hour (substrate use), 3 hr [3]: 3.95
- 590 nm absorbance normalized to zero hour (substrate use), 4 hr [3]: 3.57
- 590 nm absorbance normalized to zero hour (substrate use), 6 hr [3]: 2.71
- 590 nm absorbance normalized to zero hour (substrate use), 8 hr [3]: 1.60
- 590 nm absorbance normalized to zero hour (substrate use), 9 hr [3]: 1.61
- 590 nm absorbance normalized to zero hour (substrate use), 10 hr [3]: 1.82
- 590 nm absorbance normalized to zero hour (substrate use), 11 hr [3]: 2.21

Compound: Chondroitin Sulfate C
- 590 nm absorbance normalized to zero hour (substrate use), 0 hr [1]: 1.00
- 590 nm absorbance normalized to zero hour (substrate use), 1 hr [1]: 1.60
- 590 nm absorbance normalized to zero hour (substrate use), 2 hr [1]: 1.94
- 590 nm absorbance normalized to zero hour (substrate use), 3 hr [1]: 2.10
- 590 nm absorbance normalized to zero hour (substrate use), 4 hr [1]: 2.19
- 590 nm absorbance normalized to zero hour (substrate use), 6 hr [1]: 3.28
- 590 nm absorbance normalized to zero hour (substrate use), 8 hr [1]: 2.56
- 590 nm absorbance normalized to zero hour (substrate use), 9 hr [1]: 2.92
- 590 nm absorbance normalized to zero hour (substrate use), 10 hr [1]: 3.00
- 590 nm absorbance normalized to zero hour (substrate use), 11 hr [1]: 2.49
- Substrate use, 590 nm absorbance normalized to zero hour, 0 hr [1]: 1.00
- Substrate use, 590 nm absorbance normalized to zero hour, 1 hr [1]: 1.60
- Substrate use, 590 nm absorbance normalized to zero hour, 5 hr [1]: 2.50
- Substrate use, 590 nm absorbance normalized to zero hour, 7 hr [1]: 2.63
- 590 nm absorbance normalized to zero hour (substrate use), 0 hr [4]: 1.00
- 590 nm absorbance normalized to zero hour (substrate use), 1 hr [4]: 1.22
- 590 nm absorbance normalized to zero hour (substrate use), 2 hr [4]: 1.41
- 590 nm absorbance normalized to zero hour (substrate use), 3 hr [4]: 1.45
- 590 nm absorbance normalized to zero hour (substrate use), 5 hr [4]: 1.62
- 590 nm absorbance normalized to zero hour (substrate use), 6 hr [4]: 1.61
- 590 nm absorbance normalized to zero hour (substrate use), 7 hr [4]: 1.63
- 590 nm absorbance normalized to zero hour (substrate use), 8 hr [4]: 1.65
- 590 nm absorbance normalized to zero hour (substrate use), 9 hr [4]: 1.72
- 590 nm absorbance normalized to zero hour (substrate use), 10 hr [4]: 1.69
- 590 nm absorbance normalized to zero hour (substrate use), 11 hr [4]: 1.75
- 590 nm absorbance normalized to zero hour (substrate use), 0 hr [5]: 1.00
- 590 nm absorbance normalized to zero hour (substrate use), 1 hr [5]: 1.22
- 590 nm absorbance normalized to zero hour (substrate use), 2 hr [5]: 1.41
- 590 nm absorbance normalized to zero hour (substrate use), 3 hr [5]: 1.45
- 590 nm absorbance normalized to zero hour (substrate use), 5 hr [5]: 1.62
- 590 nm absorbance normalized to zero hour (substrate use), 6 hr [5]: 1.61
- 590 nm absorbance normalized to zero hour (substrate use), 7 hr [5]: 1.63
- 590 nm absorbance normalized to zero hour (substrate use), 8 hr [5]: 1.65
- 590 nm absorbance normalized to zero hour (substrate use), 9 hr [5]: 1.72
- 590 nm absorbance normalized to zero hour (substrate use), 10 hr [5]: 1.69
- 590 nm absorbance normalized to zero hour (substrate use), 11 hr [5]: 1.75
